Laboratory results taken from patent publication EP0032708A1, “Tryptophan derivative, process for preparing same and a pharmaceutical composition containing such derivative” (Tanabe Seiyaku Co., Ltd., priority 1980, dated 1981).

Tests used:
male SD rats = assay: Hypolipidemic activity (test compound in diet of rats for one week; serum lipids and liver weight); assay type: in vivo; conditions: test compound 0.10 w/w % in diet for one week
Protocol: (i) Hypolipidemic activity:
A test compound (0.10 w/w %) was added to a commercial diet, and male SD rats (body weight: 120 - 140 g , a group of 6 rats) were maintained on the diet for one week. After the experimental period, blood was collected from the tail vein of the rats under ether anesthesia. Thereafter, the liver was excised and weighed. Serum cholesterol and serum triglyceride were measured according to the methods of Zak (Amer. J. Clin. Pathol., Vol. 24, page 1307 (1954)) and Van Handel Zilversmit (J. Lab. & Clin. Med., Vol. 50, page 152 (1957)), respectively. Then, the increase (%) in liver weight and the decrease (%) in serum cholesterol or triglyceride were calculated according to the following formulae: [formula] [formula]

rat brain homogenate = assay: Preventive effect on lipid peroxide formation (thiobarbituric acid colorimetric method); assay type: biochemical; conditions: 10 % rat brain homogenate, pH 7.4, 30-minute incubation at 37°C
Protocol: (ii) Preventive effect on lipid peroxide formation: An ethanol solution containing 10^-3 or 10-^4 M of a test compound was added to a mixture of 2.4 ml of 0.067 M potassium phosphate buffer solution (pH 7.4) and 0.5 ml of 10 % rat brain homogenate to adjust the final volume of the mixture to 3 ml. After 30-minute incubation of the mixture at 37°C, one ml of 20 % trichloroacetic acid was added thereto, and lipid peroxide formation was determined by the thiobarbituric acid colorimetric method (J. Robak et al., Viochem. Pharmacol., Vol. 25, page 2233 (1976). Suppression (%) of lipid peroxide formation of the test compound was calculated according to the following formula: [formula] • Note: ^* : group containing the test compound ^** : group containing an equal volume of ethanol instead of the test compound solution ΔOD was calculated as [(optical density measured at 532 nm) - (optical density measured at 600 nm)]

| Increase (%) in liver weight (male SD rats) | Structure (SMILES) | Decrease (%) in serum triglyceride (male SD rats) | Decrease (%) in serume cholesterol (male SD rats) | Suppression (%) in lipid peroxide formation (rat brain homogenate; Dose 10^-3M, 1000 µM) | Suppression (%) in lipid peroxide formation (rat brain homogenate; Dose 10^-4M, 100 µM) |
| --- | --- | --- | --- | --- | --- |
| 0% | Cc1ccc(CSC(=O)N[C@@H](Cc2c[nH]c3ccccc23)C(=O)O)cc1 [Nα-(4-methylbenzylthiocarbonyl)-L-tryptophan] | 48% | 14% | 72.7% | 10.2% |
| 14% | CCOC(=O)C(C)(C)Oc1ccc(Cl)cc1 [Clofibrate, 2-(4-chlorophenoxy)-2-methylpropanoic acid ethyl ester, reference compound] | 34% | 26% | 24.3% | 0.5% |
| 5% | Cn1cc(C[C@H](NC(=O)SCc2ccccc2)C(=O)O)c2ccccc21 [N^1-methyl-Hα-benzylthiocarbonyl-L-tryptophan] | 30% | 15% | 65.2% | 9.0% |
